Where a name gives a salt, the structure may show the parent alone.

Chain of S1P1/EDG1 (P21453 whole entry): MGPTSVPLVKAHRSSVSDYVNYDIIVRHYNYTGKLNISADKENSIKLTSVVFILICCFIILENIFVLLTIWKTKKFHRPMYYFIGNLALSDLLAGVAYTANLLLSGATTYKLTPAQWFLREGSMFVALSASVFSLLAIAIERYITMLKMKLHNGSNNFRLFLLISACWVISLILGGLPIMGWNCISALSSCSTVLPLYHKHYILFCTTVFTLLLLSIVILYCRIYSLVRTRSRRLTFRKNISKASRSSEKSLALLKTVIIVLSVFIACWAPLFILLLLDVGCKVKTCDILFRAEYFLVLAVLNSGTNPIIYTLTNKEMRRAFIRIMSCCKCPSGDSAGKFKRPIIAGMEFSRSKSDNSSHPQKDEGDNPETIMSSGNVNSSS

The assay concerns the target S1P1/EDG1 (Homo sapiens, UniProt P21453). The experiment in a line: S1P1 CRE-bla CHOK1 reporter assay, inhibition of Forskolin induced cAMP. The following applies: agonist activity range; S1P1 CRE-bla CHOK1 cells, 2 μM Forskolin; read-out: S1P1 ACTIVITY
It is filed as cell-based. The protocol: Generation of S1P1-Mediated Inhibition of cAMP Reporter Assay
A mammalian expression plasmid containing S1P1/EDG1 cloned into pcDNA3.1 was purchased from Missouri S&T cDNA Resource Centre. […] S1P1/pcDNA3.1 was transfected into the CRE-bla CHO K1 (Invitrogen) cell line, and stable single cell clones were selected using standard techniques.
S1P1 CRE-Bla CHOK1 Reporter Assay—Characterization of S1P1 Agonists
Cells were seeded into 384-well black wall/clear bottom plates at 10^4 cells/well/19.5 μl assay media (DMEM-phenol free, 0.5% charcoal/dextran stripped serum, 2 mM glutamine, 0.1 mM NEAA, 1 mM Na-Pyruvate, 25 mM Hepes) and incubated for 18 hrs at 37° C. in 5% CO2. Dose response curves (10-point) were generated in 10 mM Hepes, 0.1% Pluronic F127, in the presence of Forskolin. Cells were treated with 0.5 μl compound in the presence of 2 μM Forskolin for 4 hrs at 37° C. The FRET-based β-lactamase fluorescent substrate (LiveBLAzer™-FRET B/G Loading Kit CC4-AM; Invitrogen) was prepared according to manufacturer's directions, and incubated with cells for 2 hrs at room temperature.
In general terms: Reporter assays use an easily measured gene product as a stand-in for the process of interest.
`CC(C)Oc1ccc(-c2nnc(-c3cccc4c3CC[C@H]4NS(=O)(=O)CC(=O)O)s2)cc1C#N` [Compound 41, (R)-2-(N-(4-(5-(3-cyano-4-isopropoxyphenyl)-1,3,4-thiadiazol-2-yl)-2,3-dihydro-1H-inden-1-yl)sulfamoyl)acetic acid]: the EC50 was less than 50 pM.
Take `CC(C)Oc1ccc(-c2nnc(-c3cccc4c3CC[C@H]4NS(N)(=O)=O)s2)cc1C#N` [Compound 48, (R)—N-(4-(5-(3-cyano-4-isopropoxyphenyl)-1,3,4-thiadiazol-2-yl)-2,3-dihydro-1H-inden-1-yl) sulfamide]: the EC50 was less than 50 pM.
The result for `CC(C)Oc1ccc(-c2nnc(-c3cccc4c3CC[C@H]4NC(=O)CN(C)C)s2)cc1C#N` [Compound 49] reads 500 to 5000 pM; that for `CC(C)Oc1ccc(-c2nnc(-c3cccc4c3CC[C@H]4NC(=O)N3CC(C(=O)O)C3)s2)cc1C#N` [Compound 50], 50 to 500 pM.
The result for `CC(C)Oc1ccc(-c2nnc(-c3cccc4c3CC[C@H]4NC(=O)N3CC[C@H](O)C3)s2)cc1C#N` [Compound 54] reads 50 to 500 pM; that for `CC(C)Oc1ccc(-c2nnc(-c3cccc4c3CC[C@H]4NC(=O)N3CCC[C@H](O)C3)s2)cc1C#N` [Compound 61], 50 to 500 pM.
With `CC(C)Oc1ccc(-c2nnc(-c3cccc4c3CC[C@H]4NC(=O)N3CCC(O)CC3)s2)cc1C#N` [Compound 62], the EC50 is 500 to 5000 pM.
In the case of `CC(C)Oc1ccc(-c2nnc(-c3cccc4c3CC[C@H]4NC(=O)N3CC(O)C3)s2)cc1C#N` [Compound 65] it was 50 to 500 pM.
The result for `COC(=O)N[C@@H]1CCc2c(-c3nnc(-c4ccc(OC(C)C)c(C#N)c4)s3)cccc21` [Compound 68] reads 50 to 500 pM; that for `CC(C)Oc1ccc(-c2ncc(-c3cccc4c3CC[C@H]4O)s2)cc1C#N` [Compound 69, (R)-5-(5-(1-hydroxy-2,3-dihydro-1H-inden-4-yl)thiazol-2-yl)-2-isopropoxy benzonitrile], 50 to 500 pM.
As for `CC(C)Oc1ccc(-c2ncc(-c3cccc4c3CC[C@H]4NC(=O)CO)s2)cc1C#N` [Compound 74], the EC50 was 50 to 500 pM.
The result for `COCC(=O)N[C@@H]1CCc2c(-c3cnc(-c4ccc(OC(C)C)c(C#N)c4)s3)cccc21` [Compound 75] reads 50 to 500 pM.
Turning to `CC(C)Oc1ccc(-c2ncc(-c3cccc4c3CC[C@H]4NC(=O)CN)s2)cc1C#N` [Compound 77], the EC50 was 50 to 500 pM.
The result for `CC(C)Oc1ccc(-c2ncc(-c3cccc4c3CC[C@H]4NC(=O)[C@@H](N)CO)s2)cc1C#N` [Compound 79] reads 50 to 500 pM; that for `CC(C)Oc1ccc(-c2ncc(-c3cccc4c3CC[C@H]4NC(=O)[C@H](N)CO)s2)cc1C#N` [Compound 80], 50 to 500 pM; that for `CC(C)Oc1ccc(-c2ncc(-c3cccc4c3CC[C@H]4NC(=O)CN(C)C)s2)cc1C#N` [Compound 81], 500 to 5000 pM.
In the case of `CC(C)Oc1ccc(-c2ncc(-c3cccc4c3CC[C@H]4NC(=O)Cc3ccccc3)s2)cc1C#N` [Compound 83] it was more than 5000 pM.
In the case of `CC(C)Oc1ccc(-c2ncc(-c3cccc4c3CC[C@H]4NC(=O)CN3CCCC3)s2)cc1C#N` [Compound 85], the EC50 was more than 5000 pM.
`CC(=O)N[C@@H]1CCc2c(-c3cnc(-c4ccc(OC(C)C)c(C#N)c4)s3)cccc21` [Compound 87]: the EC50 is 50 to 500 pM.
The result for `COC(=O)N[C@@H]1CCc2c(-c3cnc(-c4ccc(OC(C)C)c(C#N)c4)s3)cccc21` [Compound 89] reads 500 to 5000 pM.
As for `CC(C)Oc1ccc(-c2ncc(-c3cccc4c3CC[C@H]4NCCO)s2)cc1C#N` [Compound 91, (R)-5-(5-(1-((2-hydroxyethyl)amino)-2,3-dihydro-1H-inden-4-yl)thiazol-2-yl)-2-isopropoxybenzonitrile], the EC50 lay within 500 to 5000 pM.
Regarding `COCCN[C@@H]1CCc2c(-c3cnc(-c4ccc(OC(C)C)c(C#N)c4)s3)cccc21` [Compound 93], the EC50 lay within 500 to 5000 pM.
For the molecule `CC(C)Oc1ccc(-c2ncc(-c3cccc4c3CC[C@H]4NCC(=O)O)s2)cc1C#N` [Compound 96, (R)-2-((4-(2-(3-cyano-4-isopropoxyphenyl)thiazol-5-yl)-2,3-dihydro-1H-inden-1-yl)amino)acetic acid], the EC50 was in the range of 50 to 500 pM.
The result for `CC(C)Oc1ccc(-c2ncc(-c3cccc4c3CC[C@H]4NCC(=O)N3CCCC3)s2)cc1C#N` [Compound 100] reads 50 to 500 pM; that for `CC(C)Oc1ccc(-c2ncc(-c3cccc4c3CC[C@H]4NCC(=O)N3CC[C@H](O)C3)s2)cc1C#N` [Compound 102, 5-(5-((R)-1-((2-((S)-3-hydroxypyrrolidin-1-yl)-2-oxoethyl)amino)-2,3-dihydro-1H-inden-4-yl)thiazol-2-yl)-2-isopropoxybenzonitrile hydrochloride], 50 to 500 pM; that for `CC(C)Oc1ccc(-c2ncc(-c3cccc4c3CC[C@H]4NCC(=O)N3CC[C@@H](O)C3)s2)cc1C#N` [Compound 103], 50 to 500 pM.
The result for `CC(C)Oc1ccc(-c2ncc(-c3cccc4c3CC[C@@H]4NCC(=O)N3CC[C@@H](O)C3)s2)cc1C#N` [Compound 105] reads more than 5000 pM; that for `CC(C)Oc1ccc(-c2ncc(-c3cccc4c3CC[C@H]4NCC(=O)N3CCNCC3)s2)cc1C#N` [Compound 107], 500 to 5000 pM.
The result for `CC(C)Oc1ccc(-c2ncc(-c3cccc4c3CC[C@H]4NCc3ncc[nH]3)s2)cc1C#N` [Compound 109, (R)-5-(5-(1-(((1H-imidazol-2-yl)methyl)amino)-2,3-dihydro-1H-inden-4-yl)thiazol-2-yl)-2-isopropoxybenzonitrile] reads 500 to 5000 pM; that for `CC(C)Oc1ccc(-c2ncc(-c3cccc4c3CC[C@H]4NS(C)(=O)=O)s2)cc1C#N` [Compound 111, (R)—N-(4-(2-(3-cyano-4-isopropoxyphenyl)thiazol-5-yl)-2,3-dihydro-1H-inden-1-yl)methanesulfonamide], 50 to 500 pM.
Consider `CCS(=O)(=O)N[C@@H]1CCc2c(-c3cnc(-c4ccc(OC(C)C)c(C#N)c4)s3)cccc21` [Compound 113], for which the EC50 is 50 to 500 pM.
Turning to `COCCS(=O)(=O)N[C@@H]1CCc2c(-c3cnc(-c4ccc(OC(C)C)c(C#N)c4)s3)cccc21` [Compound 116], the EC50 was 500 to 5000 pM.
The result for `CC(C)Oc1ccc(-c2ncc(-c3cccc4c3CC[C@H]4NS(=O)(=O)C3CC3)s2)cc1C#N` [Compound 117] reads 50 to 500 pM; that for `CC(C)Oc1ccc(-c2ncc(-c3cccc4c3CC[C@H]4NS(=O)(=O)Cc3ccccc3)s2)cc1C#N` [Compound 120], 500 to 5000 pM; that for `CC(C)Oc1ccc(-c2ncc(-c3cccc4c3CC[C@H]4NS(=O)(=O)CCN3CCOCC3)s2)cc1C#N` [Compound 121], 500 to 5000 pM.
Turning to `CC(C)Oc1ccc(-c2ncc(-c3cccc4c3CC[C@H]4NS(=O)(=O)CCN(C)C)s2)cc1C#N` [Compound 123], the EC50 lay in the range of 500 to 5000 pM.
`CNCCS(=O)(=O)N[C@@H]1CCc2c(-c3cnc(-c4ccc(OC(C)C)c(C#N)c4)s3)cccc21` [Compound 126]: the EC50 fell in the range of 500 to 5000 pM.
Regarding `CC(C)Oc1ccc(-c2ncc(-c3cccc4c3CC[C@H]4NS(=O)(=O)CCN3CCC3)s2)cc1C#N` [Compound 127], the EC50 was in the range of 500 to 5000 pM.
The result for `CC(C)Oc1ccc(-c2ncc(-c3cccc4c3CC[C@H]4NS(=O)(=O)CCN3CCCC3)s2)cc1C#N` [Compound 130] reads 500 to 5000 pM; that for `CC(C)Oc1ccc(-c2ncc(-c3cccc4c3CC[C@@H]4NS(=O)(=O)CCN3CC[C@@H](O)C3)s2)cc1C#N` [Compound 131], 500 to 5000 pM.

Source of the values: patent US9481659B2, “Selective heterocyclic sphingosine 1 phosphate receptor modulators” (Celgene International II SÀRL, priority 2011, dated 2016).
